Measured values as given in patent publication US10173971B2, “Picolinamides with fungicidal activity” (DOW AGROSCIENCES LLC, priority 2014, dated 2019).
Like-named read-outs stand apart in the source and are kept apart here.

Assays:
Zymoseptoria tritici = assay: Fungicidal activity: leaf blotch of wheat (SEPTTR), wheat seedlings, booth sprayer to run-off or track spray; assay type: in vivo; details: for pest or weed control at 100 ppm: High-Volume Cereal Activity at 100 ppm; for pest or weed control at 121.5 g/ha: Low-Volume Cereal Activity at 121.5 g/H
Description: All fungicides were evaluated using the aforementioned method for their activity vs. all target diseases. Wheat leaf blotch and brown rust activity were also evaluated using track spray applications, in which case the fungicides were formulated as EC formulations, containing 0.1% Trycol 5941 in the spray solutions. Wheat plants (variety Yuma) were grown from seed in a greenhouse in 50% mineral soil/50% soil-less Metro mix until the first leaf was fully emerged, with 7-10 seedlings per pot. These plants were inoculated with an aqueous spore suspension of Zymoseptoria tritici either prior to or after fungicide treatments. After inoculation the plants were kept in 100% relative humidity (one day in a dark dew chamber followed by two to three days in a lighted dew chamber at 20° C.) to permit spores to germinate and infect the leaf. The plants were then transferred to a greenhouse set at 20° C. for disease to develop. When disease symptoms were fully expressed on the 1st leaves of untreated plants, infection levels were assessed on a scale of 0 to 100 percent disease severity. Percent disease control was calculated using the ratio of disease severity on treated plants relative to untreated plants.

Puccinia triticina = assay: Fungicidal activity: wheat brown rust (PUCCRT), wheat seedlings, booth sprayer to run-off or track spray; assay type: in vivo; details: for pest or weed control at 100 ppm: High-Volume Cereal Activity at 100 ppm; for pest or weed control at 121.5 g/ha: Low-Volume Cereal Activity at 121.5 g/H
Description: All fungicides were evaluated using the aforementioned method for their activity vs. all target diseases. Wheat leaf blotch and brown rust activity were also evaluated using track spray applications, in which case the fungicides were formulated as EC formulations, containing 0.1% Trycol 5941 in the spray solutions. Wheat plants (variety Yuma) were grown from seed in a greenhouse in 50% mineral soil/50% soil-less Metro mix until the first leaf was fully emerged, with 7-10 seedlings per pot. These plants were inoculated with an aqueous spore suspension of Puccinia triticina either prior to or after fungicide treatments. […] The plants were then transferred to a greenhouse set at 24° C. for disease to develop. Fungicide formulation, application and disease assessment followed the procedures as described in the Example A.

[1] = 3DC (Day Curative), read-out: SEPTTR 3DC
[2] = 3DC (Day Curative), read-out: PUCCRT 3DC
[3] = 24 h, 1 Day Protectant, read-out: SEPTTR 1DP
[4] = 24 h, 1 Day Protectant, read-out: PUCCRT 1DP
[5] = 72 h, 3 Day Curative, read-out: SEPTTR 3DC
[6] = 72 h, 3 Day Curative, read-out: PUCCRT 3DC

SMILES | pest or weed control at 100 ppm (Zymoseptoria tritici; [1]) | pest or weed control at 100 ppm (Puccinia triticina; [2]) | pest or weed control at 100 ppm (Zymoseptoria tritici; [3]) | pest or weed control at 100 ppm (Puccinia triticina; [4]) | pest or weed control at 121.5 g/ha (Zymoseptoria tritici; [3]) | pest or weed control at 121.5 g/ha (Zymoseptoria tritici; [5]) | pest or weed control at 121.5 g/ha (Puccinia triticina; [4]) | pest or weed control at 121.5 g/ha (Puccinia triticina; [6])
CCCC[C@H](c1ccccc1)[C@H](C)OC(=O)[C@H](C)NC(=O)c1nccc(OC)c1O [compound 120] | 0 to 80% | 0 to 80% | – | – | – | – | – | –
COc1ccnc(C(=O)N[C@@H](C)C(=O)O[C@@H](C)[C@H](Cc2ccc(Cl)cc2)c2ccccc2)c1O [compound 121] | 0 to 80% | 0 to 80% | 80 to 100% | 80 to 100% | – | – | – | –
COc1ccnc(C(=O)N[C@@H](C)C(=O)O[C@@H](C)[C@H](CCC(C)C)c2ccccc2)c1O [compound 123] | 80 to 100% | 0 to 80% | – | – | – | – | – | –
COc1ccnc(C(=O)N[C@@H](C)C(=O)O[C@@H](C)[C@@H](COc2ccccc2)Cc2ccccc2)c1O [compound 125] | 0 to 80% | 0 to 80% | 0 to 80% | 0 to 80% | – | – | – | –
COc1ccnc(C(=O)N[C@@H](C)C(=O)O[C@@H](C)[C@@H](COc2ccc(Cl)cc2Cl)Cc2ccccc2)c1O [compound 126] | – | – | 0 to 80% | 0 to 80% | – | – | – | –
COc1ccnc(C(=O)N[C@@H](C)C(=O)O[C@@H](C)[C@H](Cc2ccc(Cl)c(Cl)c2)c2ccccc2)c1O [compound 127] | 0 to 80% | – | 0 to 80% | 0 to 80% | – | – | – | –
COc1ccnc(C(=O)N[C@@H](C)C(=O)O[C@@H](C)[C@H](Cc2ccc(C)cc2)c2ccccc2)c1O [compound 128] | 0 to 80% | – | 80 to 100% | 80 to 100% | – | – | – | –
COc1ccnc(C(=O)N[C@@H](C)C(=O)O[C@@H](C)[C@H](Cc2ccc(F)cc2)c2ccccc2)c1O [compound 129] | 0 to 80% | 0 to 80% | 80 to 100% | 80 to 100% | – | – | – | –
COc1ccnc(C(=O)N[C@@H](C)C(=O)O[C@@H](C)[C@H](Cc2ccc3ccccc3c2)c2ccccc2)c1O [compound 130] | 0 to 80% | – | 80 to 100% | 80 to 100% | – | – | – | –
COc1ccnc(C(=O)N[C@@H](C)C(=O)O[C@@H](C)[C@@H](COCc2ccccc2)Cc2ccc(F)cc2)c1O [compound 131] | 0 to 80% | 0 to 80% | 80 to 100% | 80 to 100% | – | – | – | –
COc1ccnc(C(=O)N[C@@H](C)C(=O)O[C@@H](C)[C@@H](COCc2ccccc2)Cc2ccccc2)c1O [compound 132] | 80 to 100% | 80 to 100% | 0 to 80% | 80 to 100% | – | – | – | –
COc1ccnc(C(=O)N[C@@H](C)C(=O)O[C@@H](C)[C@H](Cc2ccc(F)cc2)C(C)(C)OCc2ccccc2)c1O [compound 133] | 0 to 80% | – | 0 to 80% | 80 to 100% | – | – | – | –
COc1ccnc(C(=O)N[C@@H](C)C(=O)O[C@@H](C)[C@H](Cc2ccccc2)C(C)(C)OCc2ccccc2)c1O [compound 134] | 0 to 80% | 0 to 80% | 80 to 100% | 80 to 100% | – | – | – | –
COC[C@@H](Cc1ccc(F)cc1)[C@H](C)OC(=O)[C@H](C)NC(=O)c1nccc(OC)c1O [compound 135] | 0 to 80% | 0 to 80% | 0 to 80% | 80 to 100% | – | – | – | –
COc1ccnc(C(=O)N[C@@H](C)C(=O)O[C@@H](C)[C@H](Cc2ccc(F)cc2)C(C)(C)OC)c1O [compound 136] | 80 to 100% | 0 to 80% | – | 0 to 80% | – | – | – | –
COc1ccnc(C(=O)N[C@@H](C)C(=O)O[C@@H](C)[C@H](Cc2ccccc2)C(C)(C)OC)c1O [compound 137] | 0 to 80% | 0 to 80% | – | – | – | – | – | –
COc1ccnc(C(=O)N[C@@H](C)C(=O)O[C@@H](C)[C@H](Cc2ccc(F)cc2)C(C)(C)OCc2ccc(F)cc2)c1O [compound 139] | 0 to 80% | – | 0 to 80% | 0 to 80% | – | – | – | –

SMILES | pest or weed control at 100 ppm (Zymoseptoria tritici; [1]) | pest or weed control at 100 ppm (Puccinia triticina; [2]) | pest or weed control at 100 ppm (Zymoseptoria tritici; [3]) | pest or weed control at 100 ppm (Puccinia triticina; [4]) | pest or weed control at 121.5 g/ha (Zymoseptoria tritici; [3]) | pest or weed control at 121.5 g/ha (Zymoseptoria tritici; [5]) | pest or weed control at 121.5 g/ha (Puccinia triticina; [4]) | pest or weed control at 121.5 g/ha (Puccinia triticina; [6])
COc1ccnc(C(=O)N[C@@H](C)C(=O)O[C@@H](C)[C@@H](COCCC(C)C)Cc2ccc(F)cc2)c1O [compound 140] | 0 to 80% | 0 to 80% | 0 to 80% | – | – | – | – | –
COc1ccnc(C(=O)N[C@@H](C)C(=O)O[C@@H](C)[C@@H](COCCC(C)C)Cc2ccccc2)c1O [compound 141] | 0 to 80% | 0 to 80% | 80 to 100% | 0 to 80% | – | – | – | –
CCCOC[C@@H](Cc1ccc(OC)cc1)[C@H](C)OC(=O)[C@H](C)NC(=O)c1nccc(OC)c1O [compound 143] | 0 to 80% | 0 to 80% | 80 to 100% | 80 to 100% | – | – | – | –
CCCOC[C@@H](Cc1ccc(OC)c(Cc2ccccc2)c1)[C@H](C)OC(=O)[C@H](C)NC(=O)c1nccc(OC)c1O [compound 145] | 0 to 80% | – | 80 to 100% | 0 to 80% | – | – | – | –
CCCOC(C)(C)[C@@H](Cc1ccc(OC)c(Cc2ccccc2)c1)[C@H](C)OC(=O)[C@H](C)NC(=O)c1nccc(OC)c1O [compound 146] | 0 to 80% | – | 0 to 80% | 0 to 80% | – | – | – | –
COc1ccnc(C(=O)N[C@@H](C)C(=O)OC(C)C(Cc2ccccc2)Cc2ccccc2)c1O (stereo partly shown) [compound 147] | – | – | 80 to 100% | 80 to 100% | – | – | – | –
COc1ccnc(C(=O)N[C@H](C(=O)OC(C)C(Cc2ccccc2)Cc2ccccc2)C(C)C)c1O (stereo partly shown) [compound 148] | – | – | 0 to 80% | 0 to 80% | – | – | – | –
CC[C@H](NC(=O)c1nccc(OC)c1O)C(=O)OC(C)C(Cc1ccccc1)Cc1ccccc1 (stereo partly shown) [compound 149] | – | – | 80 to 100% | 80 to 100% | – | – | – | –
COc1ccnc(C(=O)N[C@@H](C)C(=O)OC(C)C(Cc2cccc(F)c2)Cc2cccc(F)c2)c1O (stereo partly shown) [compound 150] | – | – | 80 to 100% | 80 to 100% | – | – | – | –
COc1ccnc(C(=O)N[C@@H](C)C(=O)OC(C)C(Cc2ccc(F)cc2)Cc2ccc(F)cc2)c1O (stereo partly shown) [compound 151] | – | – | 80 to 100% | 80 to 100% | – | – | – | –
CC[C@H](NC(=O)c1nccc(OC)c1O)C(=O)O[C@@H](C)C(Cc1cccc(OC)c1)Cc1cccc(OC)c1 [compound 153] | 0 to 80% | – | 0 to 80% | 80 to 100% | – | – | – | –
COc1ccc(CC(Cc2ccc(OC)cc2)[C@H](C)OC(=O)[C@H](C)NC(=O)c2nccc(OC)c2O)cc1 [compound 154] | – | – | 80 to 100% | 80 to 100% | – | – | – | –
COc1ccc(C[C@H](COc2ccc(F)cc2F)[C@H](C)OC(=O)[C@H](C)NC(=O)c2nccc(OC)c2O)cc1 [compound 160] | – | – | 0 to 80% | 80 to 100% | – | – | – | –
CCCOC[C@@H](Cc1ccccc1)[C@H](C)OC(=O)[C@H](C)NC(=O)c1nccc(OC)c1OCOC(C)=O [compound 162] | 80 to 100% | 80 to 100% | 80 to 100% | 80 to 100% | 80 to 100% | 80 to 100% | 80 to 100% | 80 to 100%
CCCO[C@@H](CC)[C@@H](Cc1ccccc1)[C@H](C)OC(=O)[C@@H](C)NC(=O)c1nccc(OC)c1OCOC(C)=O [compound 163] | 0 to 80% | 80 to 100% | 0 to 80% | 80 to 100% | – | – | – | –
CCCO[C@@H](CC)[C@@H](Cc1ccccc1)[C@H](C)OC(=O)[C@H](CC)NC(=O)c1nccc(OC)c1OCOC(C)=O [compound 164] | 80 to 100% | 80 to 100% | 80 to 100% | 80 to 100% | 0 to 80% | 0 to 80% | 80 to 100% | 80 to 100%
CCCO[C@H](CC)[C@@H](Cc1ccccc1)[C@H](C)OC(=O)[C@@H](C)NC(=O)c1nccc(OC)c1OCOC(C)=O [compound 165] | 0 to 80% | 80 to 100% | 80 to 100% | 0 to 80% | – | – | – | –
